The test system of this assay is BDF1 mice, B16 melanoma ip, median survival T/C. The assay is described as follows: NCI In Vivo Anticancer Drug Screen. Data for tumor model B16 Melanoma (intraperitoneal) in B6D2F1 (BDF1) mice. The settings on record: endpoint: median survival time, higher = longer survival. The method in brief: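 Survival or tumor size is measured after treatment of tumor-bearing mice and normalised to the vehicle-treated control group.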

Setting [1] is: dose: 3.12 mg/kg/injection, schedule: Q01DX009 (ip), vehicle: Klucel (hydroxypropylcellulose) (HPC).
Where [2] appears, read: dose: 6.25 mg/kg/injection, schedule: Q01DX009 (ip), vehicle: Klucel (hydroxypropylcellulose) (HPC).
[3] abbreviates: dose: 25.0 mg/kg/injection, schedule: Q01DX009 (ip), vehicle: Klucel (hydroxypropylcellulose) (HPC).
[4] abbreviates: dose: 100.0 mg/kg/injection, schedule: Q04DX003 (ip), vehicle: Klucel (hydroxypropylcellulose) (HPC).
Setting [5] is: dose: 6.25 mg/kg/injection, schedule: Q01DX009 (ip), vehicle: saline with Tween-80.
Setting [6] is: dose: 25.0 mg/kg/injection, schedule: Q01DX009 (ip), vehicle: saline with Tween-80.
[7] abbreviates: dose: 100.0 mg/kg/injection, schedule: Q01DX009 (ip), vehicle: Klucel (hydroxypropylcellulose) (HPC).
[8] abbreviates: dose: 200.0 mg/kg/injection, schedule: Q01DX009 (ip), vehicle: Klucel (hydroxypropylcellulose) (HPC).
[9] abbreviates: dose: 400.0 mg/kg/injection, schedule: Q01DX009 (ip), vehicle: Klucel (hydroxypropylcellulose) (HPC).
The mark [10] stands for this setting: dose: 200.0 mg/kg/injection, schedule: Q04DX003 (ip), vehicle: Klucel (hydroxypropylcellulose) (HPC).
The mark [11] stands for this setting: dose: 400.0 mg/kg/injection, schedule: Q04DX003 (ip), vehicle: Klucel (hydroxypropylcellulose) (HPC).
Where [12] appears, read: dose: 12.5 mg/kg/injection, schedule: Q01DX009 (ip), vehicle: water.
Where [13] appears, read: dose: 50.0 mg/kg/injection, schedule: Q01DX009 (ip), vehicle: water.

SMILES strings stand for the structures. Toxic doses and inconclusive results are not listed.

Regarding `CC(NC(=O)OCc1ccccc1)C(=O)O` (stereo unspecified), the T/C under setting [1] is 97 % of control; the T/C under setting [2] is 88 % of control; the T/C (dose: 12.5 mg/kg/injection, schedule: Q01DX009 (ip), vehicle: Klucel (hydroxypropylcellulose) (HPC)) is 94 % of control; the T/C under setting [3] is 88 % of control; the T/C under setting [4] was 88 % of control.
`CCOC(=O)C(N)C[S][Sn]([CH3])([CH3])[Cl]` (stereo unspecified): the T/C reads like this: under setting [5], 105 % of control; (dose: 12.5 mg/kg/injection, schedule: Q01DX009 (ip), vehicle: saline with Tween-80) 88 % of control; under setting [6], 100 % of control.
With `CC[C@@H](C(=O)[C@@H](C)[C@@H](O)[C@H](C)CCc1ccc(C)c(O)c1C(=O)O)[C@H]1O[C@](CC)([C@H]2CC[C@](O)(CC)[C@H](C)O2)C[C@@H]1C`, the T/C (dose: 1.56 mg/kg/injection, schedule: Q01DX009 (ip), vehicle: Klucel (hydroxypropylcellulose) (HPC)) is 111 % of control; the T/C under setting [1] is 102 % of control; the T/C under setting [2] was 111 % of control.
Turning to `CCCCCc1cc(O)c2c(c1)OC(C)(C)c1ccc(C)cc1-2`, the T/C (dose: 64.0 mg/kg/injection, schedule: Q01DX009 (ip), vehicle: saline) is 115 % of control; the T/C (dose: 128.0 mg/kg/injection, schedule: Q01DX009 (ip), vehicle: saline) was 110 % of control; the T/C (dose: 256.0 mg/kg/injection, schedule: Q01DX009 (ip), vehicle: saline) was 112 % of control; the T/C (dose: 512.0 mg/kg/injection, schedule: Q01DX009 (ip), vehicle: saline) was 88 % of control.
`Cc1cc2cc3cc(C)c(N)cc3nc2cc1N`: the T/C is, setting by setting: (dose: 3.12 mg/kg/injection, schedule: Q01DX009 (ip), vehicle: saline with Tween-80) 116 % of control; under setting [5], 121 % of control; under setting [6], 119 % of control.
Take `CCOC(=O)c1cncc(C(=O)OCC)c1`: the T/C is 107 % of control under setting [7], 113 % of control under setting [8] and 106 % of control under setting [9].
With `Cc1ccc(NC(=S)N(C)C)cc1Cl`, the T/C runs as follows: under setting [7], 100 % of control; under setting [4], 104 % of control; under setting [8], 88 % of control; under setting [10], 90 % of control; under setting [9], 88 % of control; under setting [11], 95 % of control.
As to `O=C(NC(=O)C(Cl)Cl)OC1c2cc(Cl)ccc2-c2c(Cl)cc(Cl)cc21` (stereo unspecified), the T/C (dose: 3.0 mg/kg/injection, schedule: Q01DX009 (ip), vehicle: saline with Tween-80) was 93 % of control; the T/C (dose: 6.0 mg/kg/injection, schedule: Q01DX009 (ip), vehicle: saline with Tween-80) was 97 % of control; the T/C (dose: 12.0 mg/kg/injection, schedule: Q01DX009 (ip), vehicle: saline with Tween-80) was 86 % of control.
As for `O=S(=O)(O)c1cc(O)c2ccccc2c1`, the T/C is 107 % of control (dose: 100.0 mg/kg/injection, schedule: Q01DX009 (ip), vehicle: saline); 100 % of control (dose: 200.0 mg/kg/injection, schedule: Q01DX009 (ip), vehicle: saline); 102 % of control (dose: 400.0 mg/kg/injection, schedule: Q01DX009 (ip), vehicle: saline).
Turning to `O=C(O)CSc1nc(-c2ccccc2)c(-c2ccccc2)n1-c1ccccn1`, the T/C was 98 % of control under setting [12]; 97 % of control (dose: 25.0 mg/kg/injection, schedule: Q01DX009 (ip), vehicle: water); 98 % of control under setting [13]; 98 % of control (dose: 100.0 mg/kg/injection, schedule: Q01DX009 (ip), vehicle: water).
In the case of `CNNCc1ccc(C(=O)NC(C)C)cc1`, the T/C is 121 % of control (dose: 37.5 mg/kg/injection, schedule: Q01DX009 (ip), vehicle: water); 108 % of control (dose: 40.0 mg/kg/injection, schedule: Q01DX009 (ip), vehicle: saline with Tween-80); 123 % of control (dose: 54.0 mg/kg/injection, schedule: Q01DX009 (ip), vehicle: saline); 120 % of control (dose: 90.0 mg/kg/injection, schedule: Q01DX009 (ip), vehicle: saline); 123 % of control (dose: 250.0 mg/kg/injection, schedule: Q01DX009 (ip), vehicle: saline); 98 % of control (dose: 320.0 mg/kg/injection, schedule: Q01DX009 (ip), vehicle: saline with Tween-80).
In the case of `N#CC(Cc1ccccc1Cl)(Cc1ccccc1Cl)c1ccccc1`, the T/C is 100 % of control under setting [7], 105 % of control under setting [8] and 105 % of control under setting [9].
In the case of `N#CO`, the T/C by setting is: (dose: 18.7 mg/kg/injection, schedule: Q01DX009 (ip), vehicle: saline) 100 % of control; (dose: 37.5 mg/kg/injection, schedule: Q01DX009 (ip), vehicle: saline) 105 % of control; (dose: 75.0 mg/kg/injection, schedule: Q01DX009 (ip), vehicle: saline) 105 % of control.
For the compound `O=C1NC(c2ccccc2)(c2ccccc2)C(=O)N1CCN(CCCl)CCCl`, the T/C (dose: 1.3 mg/kg/injection, schedule: Q01DX009 (ip), vehicle: Klucel (hydroxypropylcellulose) (HPC)) was 93 % of control; the T/C (dose: 2.0 mg/kg/injection, schedule: Q01DX009 (ip), vehicle: Klucel (hydroxypropylcellulose) (HPC)) is 105 % of control; the T/C under setting [1] is 160 % of control; the T/C under setting [2] is 161 % of control; the T/C under setting [3] is 103 % of control; the T/C (dose: 50.0 mg/kg/injection, schedule: Q01DX009 (ip), vehicle: Klucel (hydroxypropylcellulose) (HPC)) is 153 % of control.
Take `Cc1sc2ccc(Cl)cc2[n+]1CCC(=O)O`: the T/C is, setting by setting: (dose: 100.0 mg/kg/injection, schedule: Q04DX003 (ip), vehicle: saline with Tween-80) 105 % of control; (dose: 200.0 mg/kg/injection, schedule: Q04DX003 (ip), vehicle: saline with Tween-80) 107 % of control; (dose: 400.0 mg/kg/injection, schedule: Q04DX003 (ip), vehicle: saline with Tween-80) 105 % of control.
`CCCSc1ccccc1N1CCN(CC(COC)OC)CC1` (stereo unspecified): the T/C reads like this: (dose: 12.5 mg/kg/injection, schedule: Q01DX009 (ip), vehicle: saline) 101 % of control; (dose: 25.0 mg/kg/injection, schedule: Q01DX009 (ip), vehicle: saline) 100 % of control; (dose: 50.0 mg/kg/injection, schedule: Q01DX009 (ip), vehicle: saline) 96 % of control.
As to `CSc1ncnc2c1ncn2-n1cccc1`, the T/C under setting [7] is 88 % of control; the T/C under setting [4] is 100 % of control; the T/C under setting [8] is 88 % of control; the T/C under setting [10] was 100 % of control; the T/C under setting [9] was 113 % of control; the T/C under setting [11] is 100 % of control.
Turning to `Nc1n[n+](-c2ccc(Cl)cc2)no1`, the T/C by setting is: (dose: 3.12 mg/kg/injection, schedule: Q01DX009 (ip), vehicle: water) 102 % of control; (dose: 6.25 mg/kg/injection, schedule: Q01DX009 (ip), vehicle: water) 107 % of control; under setting [12], 109 % of control; under setting [13], 117 % of control.

Source of the values: PubChem BioAssay AID192 (DTP/NCI, 2004).
